Assays:
JJ5 breast cancer cells [1] = experiment: Growth inhibition assay against JJ5 breast cancer cells; type: cell-based, human; settings: 4 days culture
Experimental: Growth medium was added and the cells were cultured at 37° C./5% CO^2 for 4 days. The cells were then recovered by trypsinization and counted in a hemocytometer. Control dishes contained cells cultured in growth medium containing ^111In-DTPA or growth medium alone.

JJ5 breast cancer cells [2] = experiment: Cytotoxicity (colony-forming) assay against JJ5 breast cancer cells; type: cell-based, human; settings: 14 days
Experimental: The number of cells seeded was varied from 3×10^4 to 3×10^6 cells to obtain approximately 400 viable colonies/dish taking into account the plating efficiency and the expected level of cytotoxicity. Control dishes contained JJ5 breast cancer cells which were incubated with normal saline. Growth medium was added and the cells were cultured at 37° C./5% CO^2 for 14 days. The growth medium was removed and the colonies were stained with methylene blue (1% in a 1:1 mixture of ethanol and water) then washed twice. The number of colonies per dish was counted using a manual colony counter (Manostat Corp). The plating efficiency was calculated by dividing the number of colonies observed by the number of cells seeded in each dish.

[3] = system: JJ5 Breast Cancer cells (EGFR); experiment: Binding of EGF-^111In-labeled transferrin compound to breast cancer cells (radioligand binding, kinetics, retention); parameters: species or system human
Experimental: For the normal breast cell line HBL-100, 8000 EGFR/cell has been reported. The expression of EGFR in breast cancer cell lines has a reported range of 800 EGFR/cell for MCF-7 cells to 10^6 EGFR/cell for MDA-MB-468 cells. […] Utilizing the Auger electron emitter ^111In was used in the initial experiments to illustrate the utility of the invention using EGF-^111In-labeled transferrin compounds. The EGF-^111In-labeled transferrin (0.25-80 ng) was incubated with 1.5×10^6 cells/dish JJ5 Breast Cancer (prepared from BCBM JJ5) cells in 1 mL of 0.1% human serum albumin in 35 mm multiwell culture dishes at 37° C. for 30 minutes. The cells were transferred to a centrifuge tube and centrifuged. The cell pellet was separated from the supernatant and counted in a g-scintillation counter to determine bound (B) and free (F) radioactivity. Non-specific binding was determined by conducting the assay in 100 nM hEGF. […] Internalized fraction was measured by determining the proportion of radioactivity which could not be displaced from the cell surface by 100 nM hEGF. Cell-associated binding (surface-binding and intracellular accumulation) was expressed as a percentage of medium radioactivity bound per mg of cell study protein.

[In+3].[O-]c1cccc2cccnc12.[O-]c1cccc2cccnc12.[O-]c1cccc2cccnc12 [^111In-oxine, reference compound]
growth inhibition of the JJ5 cells compared to the medium control (JJ5 breast cancer cells [1]; 3.5 pCi/cell): 91% | cell killing (JJ5 breast cancer cells [2]; <6 pCi/cell): greater than 99%

EGF-^111In-labeled transferrin compound: human EGF linked via PEG3400-biotin or peptide linker-biotin to streptavidin-transferrin, transferrin labeled with ^111In
internalization by cancer cells (in words) ([3]; JJ5 cells): rapidly internalized | number of binding sites ([3]; JJ5 cells): 2.7×10^6 | binding by the breast cancer cells (kinetics, in words) ([3]; JJ5 cells, 37° C.): rapidly bound | time retained by the breast cancer cells ([3]; JJ5 cells, 37° C.): at least 24 hours | affinity constant for binding to JJ5 cells ([3]; JJ5 cells, 37° C., 30 minutes): 8e+08 L/mol | ^111In radioactivity lost from the cells in vitro ([3]; over a 24 hour period at 37° C.): < 8% | growth inhibition of the JJ5 cells compared to the medium control (JJ5 breast cancer cells [1]; 3.4 pCi/cell): 83% | reduction in cell survival for JJ5 cells (JJ5 breast cancer cells [2]; 8 pCi/cell): 99%
